# Data taken from patent US20190314377A1, “TREATMENT OF HEMATOLOGICAL MALIGNANCY WITH SMALL MOLECULE NF-KB INHIBITORS” (MEMORIAL SLOAN-KETTERING CANCER CENTER, priority 2016, published 2019).
# Experiments:
# [1] = test system: TMD8 B cell lymphoma cells; assay: MTS cell proliferation assay, TMD8; assay type: cell-based, human; conditions: 2, 4 and 6 μM, 24 and 48 hours
# Procedure: TMD8 human DLBCL cells were incubated for 48 hours in the presence of empty vehicle or 2, 4 and 6 μM of IT-848, IT-878, PS-1145, or ibrutinib, Cell proliferation was analyzed after 24 and 48 hours by MTS assay. Mean and SEM or relative cell growth are presented.
# (§1) TDM8, Ly19, L363, SUDHL4, MM.1S or U266 cells were independently incubated for up to 48 hours in the presence of empty vehicle, IT-compound (2, 4, 6 μM), PS-1145 (2, 4 and 6 μM), or ibrutinib (2, 4 and 6 μM). Cell growth was measured indirectly after 24 and 48 hours by CellTiter 96 Aqueous Non-Radioactive Cell Proliferation Assay (Promega, Madison, Wis.) per manufacturer's instructions. Briefly, tetrazolium compound [-(4,5-dimethylthiazol-2-yl)-5-(3-carboxymethoxyphenyl)-2-(4-sulfophenyl)-2H-tetrazolium, inner salt; MTS] was added to the culture media and the conversion of MTS into formazon was measured by the amount of 490 nm absorbance. The number of viable cells correlates with absorbance at 490 nm. The results are shown in FIGS. 5A-D. Mean and SEM of relative cell growth are presented.
# [2] = test system: NFAT transcriptional activity; assay: Jurkat/Luciferase/NFAT transcriptional reporter assay; assay type: cell-based; conditions: PMA/ionomycin stimulated; 12 hours; 1, 3, 6 and 10 μM
# Procedure: (§2) Jurkat/GFP/NF-κB transcriptional reporter cells were stimulated with TNF-α, Jurkat/Luciferase/NFAT transcriptional reporter cells were stimulated with PMA/ionomycin, and HepG2/Luciferase/Nrf2-Antioxidant response element (ARE) transcriptional reporter cells were treated with tert-butylhydroquinone. The respective cell lines were incubated for 12 hours in the presence of empty vehicle or 1, 3, 6 and 10 μM of IT-848 or IT-878. NF-κB transcriptional activity was analyzed by flow cytometry, NFAT and Nrf2 transcriptional activities were analyzed by luminescence measurement. Mean and SEM of relative fluorescent or luminescent intensities are presented.
# (§3) A NF-κB/Jurkat/GFP transcription reporter cell line was purchased from System Biosciences. NFAT/Jurkat/Luciferase transcriptional reporter cells were generated at Memorial Sloan-Kettering Cancer Center. HepG2/ARE/Luciferase Nrf2 transcriptional reporter cells were purchased from BPS biosciences.
# [3] = test system: U266 multiple myeloma cells; assay: MTS cell proliferation assay, U266; assay type: cell-based, human; conditions: 2, 4 and 6 μM, 24 and 48 hours
# Procedure: U266 human multiple myeloma cells were incubated for 48 hours in the presence of empty vehicle or 2, 4 and 6 μM of IT-848, IT-878, PS-1145, or ibrutinib, Cell proliferation was analyzed after 24 and 48 hours by MTS assay. Mean and SEM or relative cell growth are presented.
# as §1
# [4] = test system: TMD8 cells; assay: MTS assay, combination with Panobinostat in TMD8 cells; assay type: cell-based, human; conditions: IT-848 4 μM + Panobinostat 0.1 μM; 24 and 48 hours
# Procedure: TMD8 and DLBCL cells were incubated for 48 hours in the presence of empty vehicle, IT-848 (4 μM), Panobinostat (0.1 μM), or a combination of IT-848 and Panobinaostat. Cell proliferation was analyzed after 24 and 48 hours by MTS assay. Mean and SEM of relative cell growth are presented.
# [5] = test system: SUDHL4 B cell lymphoma cells; assay: MTS cell proliferation assay, SUDHL4; assay type: cell-based, human; conditions: 2, 4 and 6 μM, 24 and 48 hours
# Procedure: SUDHL4 human DLBCL cells were incubated for 48 hours in the presence of empty vehicle or 2, 4 and 6 μM of IT-848, IT-878, PS-1145, or ibrutinib, Cell proliferation was analyzed after 24 and 48 hours by MTS assay. Mean and SEM or relative cell growth are presented.
# as §1
# [6] = test system: Nrf2 transcriptional activity; assay: HepG2/Luciferase/Nrf2-ARE transcriptional reporter assay; assay type: cell-based; conditions: tert-butylhydroquinone treated; 12 hours; 1, 3, 6 and 10 μM
# Procedure: as §2, §3
# [7] = test system: human peripheral blood mononuclear cells (PBMC); assay: Toxicity to healthy cells (DAPI viability, MTS metabolic activity), human PBMC; assay type: cell-based; conditions: 24 hours, 1, 3, 6 and 10 μM
# Procedure: (§4) Mouse splenocytes and human peripheral blood mononuclear cells (PBMC) were incubated for 24 hours in the presence of empty vehicle or 1, 3, 6 and 10 μM of IT-848 or IT-878. Viability (percentage of DAPI-negative cells) was analyzed by flow cytometry and metabolic activity was analyzed by MTS assay. Mean and SEM of relative viability or metabolic activity are presented.
# (§5) Human peripheral blood mononuclear cells (PBMC) were purified from donor blood according to accepted protocols. Mouse splenocytes were purified from mouse spleen using methods known to those skilled in the art.
# [8] = test system: interleukin 10 (IL-10); assay: IL-10 secretion by ELISA in DLBCL and MM cell lines; assay type: cell-based, human; conditions: TMD8, HBL1 and U266 cells; 4 and 6 μM; 12 and 24 hours
# Procedure: TMD8, HBL1 and U266 cells were incubated for 24 hours in the presence of empty vehicle or IT-848 (4 and 6 μM). IL-10 concentrations in the culture media were analyzed after 12 and 24 hours by ELISA. Mean and SEM of relative IL-10 levels (percentage of vehicle) are presented.
# [9] = test system: MM.1S and U266 cells; assay: ROS levels by DCFDA assay in multiple myeloma cells; assay type: cell-based, human
# Procedure: (§6) MM.1S cells, U266 cells or mouse splenocytes were cultured in the presence of empty vehicle or serial dilutions of IT-848. ROS levels were quantified after 4 hours and 24 hours by DCFDA assay.
# (§7) Cells were treated in vitro with IT-848 (compound of Formula I), IT-878 (compound of Formula II) or vehicle solution. Reactive oxygen species (ROS) levels were analyzed by cell labelling with 2′, 7′-dichlorofluorescein diacetate (DCFDA) using a Cellular Reactive Oxygen Species Detection Assay Kit (Abcam, Cambridge, Mass.) ROS levels were analyzed by quantifying the fluorogenic marker DCFDA using flow cytometery (LSR II, BD Bioscience, San Jose, Calif.).
# [10] = Pharmacokinetics, plasma or whole blood levels by LC-MS/MS; assay type: in vivo; conditions: 5-10 mg/kg PO, IP or IV; in particular after IP or oral administration
# Procedure: Plasma or whole blood samples were analyzed at several time points after intraperitoneal, intravenous or oral administration of 5-10 mg/kg of IT-848. Samples were analyzed by liquid chromatography-tandem mass spectrometry (LC-MS/MS). IT-848 is cleared slowly after systemic administration.
# [11] = test system: HBL1 cells; assay: MTS assay, combination with Bortezomib in HBL1 cells; assay type: cell-based, human; conditions: IT-848 4 μM + Bortezomib 0.02 μM; 24 and 48 hours
# Procedure: HBL1 human DLBCL cells were incubated for 48 hours in the presence of empty vehicle, IT-848 (4 μM), Bortezomib (0.02 μM), or a combination of IT-848 and Bortezomib. Cell proliferation was analyzed after 24 and 48 hours by MTS assay. Mean and SEM of relative cell growth are presented.
# [12] = test system: mouse splenocytes; assay: Toxicity to healthy cells (DAPI viability, MTS metabolic activity), mouse splenocytes; assay type: cell-based; conditions: 24 hours, 1, 3, 6 and 10 μM
# Procedure: as §4, §5
# [13] = test system: MM.1S multiple myeloma cells; assay: MTS cell proliferation assay, MM.1S; assay type: cell-based, human; conditions: 2, 4 and 6 μM, 24 and 48 hours
# Procedure: MM.1S human multiple myeloma cells were incubated for 48 hours in the presence of empty vehicle or 2, 4 and 6 μM of IT-848, IT-878, PS-1145, or ibrutinib, Cell proliferation was analyzed after 24 and 48 hours by MTS assay. Mean and SEM or relative cell growth are presented.
# as §1
# [14] = test system: mouse splenocytes; assay: ROS levels by DCFDA assay in mouse splenocytes; assay type: cell-based
# Procedure: as §6, §7
# [15] = test system: NF-κB transcriptional activity; assay: Jurkat/GFP/NF-κB transcriptional reporter assay; assay type: cell-based; conditions: 12 hours; 1, 3, 6 and 10 μM
# Procedure: Jurkat/GFP/NF-κB transcriptional reporter cells were stimulated with TNF-α and incubated for 8 and 22 hours in the presence of empty vehicle or 1, 3 and 6 μM of IT-848 or IT-878. NF-κB transcriptional activity (GFP mean fluorescence intensity) was analyzed by flow cytometry. Mean and SEM of relative fluorescent intensities are presented.
# as §2, §3
# [16] = test system: interleukin 6 (IL-6); assay: IL-6 secretion by ELISA in DLBCL and MM cell lines; assay type: cell-based, human; conditions: TMD8, HBL1 and U266 cells; 4 and 6 μM; 12 and 24 hours
# Procedure: TMD8, HBL1 and U266 cells were incubated for 24 hours in the presence of empty vehicle or IT-848 (4 and 6 μM). IL-6 concentrations in the culture media were analyzed after 12 and 24 hours by ELISA. Mean and SEM of relative IL-6 levels (percentage of vehicle) are presented.
# [17] = test system: luciferase-expressing MM.1S cells; assay: MM.1S xenograft model of multiple myeloma in NSG mice; assay type: in vivo, mouse; conditions: IT-848 10 mg/kg i.p. M/W/F x 4 weeks; Bortezomib 0.5 mg/kg i.p. M/T x 4 weeks
# Procedure: NSG mice received 2.5×10^6 luciferase-expressing MM.1S cells intravenously. After 10 days engraftment was confirmed and mice were assigned to four groups: empty vehicle i.p. M/W/F×4 weeks; Bortezomib 0.5 mg/kg i.p. M/T×4 weeks; IT-848 10 mg/kg i.p. M/W/F×4 weeks; Bortezomib M/T+IT-848 M/W/F×4 weeks. A. Tumor growth was analyzed by in vivo bioluminescence imaging. B. Mean and SEM of bioluminescence intensities are presented. N=7-10 The area under the curve (AUC) was used to summarize the bioluminescence intensity for each subject and a permutation test was performed to determine if there was a difference in the AUCs between groups. P values are as follows: Group 1 vs. 2: 0.008; Group 2 vs. 3: 0.032; Group 1 vs 3: <0.001; Group 2 vs 4: <0.001; Group 1 vs 4: <0.001; Group 3 vs 4: 0.029.
# In tumor xenograft experiments the bioluminescent signal intensity (BLI) of tumor bearing mice was determined weekly. […] The cause of death (tumor versus toxicity) was determined based on the presence of hind leg paralysis. Death in the absence of hind leg paralysis was attributed to toxicity.
# Efficacy studies of IT-848 combined with drugs that are currently used clinically to treat B cell malignancies were also performed. […] Moreover, IT-848 was efficacious in a xenograft model of MM (FIGS. 14, 15A and 15B) and enhanced the efficacy of bortezomib (FIGS. 15A and 15B). Immunodeficient mice received bioluminescent MM.1S cells intravenously and bone marrow engraftment was confirmed by in vivo bioluminescence imaging (BLI) after ten days. Mice were assigned to three treatment groups (IT-848 single agent, bortezomib single agent, combination of IT-848 and bortezomib) and a control group (empty vehicle IP). Onset of hind leg paralysis, which is the clinical endpoint of progressive disease in this model, was delayed in all three treatment groups (FIG. 9).
Compound,cell growth (MTS) [1],effect on NFAT transcriptional activity [2],cell growth (MTS) [3],"effect on activity of Panobinostat (cell growth, MTS) [4]",cell growth (MTS) [5],effect on Nrf2 transcriptional activity [6],viability and metabolic activity of healthy cells [7],secretion of IL-10 [8],ROS levels ([9]; after 24 hours),ROS levels ([9]; after four hours),clearance [10],"effect on activity of Bortezomib (cell growth, MTS) [11]",viability and metabolic activity of healthy cells [12],cell growth (MTS) [13],ROS levels ([14]; after 4 hours),ROS levels ([14]; after 24 hours),specificity of inhibition of transcriptional activity [15],secretion of IL-6 [16],onset of hind leg paralysis [17],tumor growth by in vivo bioluminescence imaging (BLI) [17]
"CCCCCCOc1ccc2cc3c(=O)[nH]c(=O)nc-3oc2c1Cl [IT-848, 9-chloro-8-(hexyloxy)-2H-chromeno[2,3-d]pyrimidine-2,4(3H)-dione]",inhibits growth,spared,inhibits growth,enhances the activity,inhibits growth,spared,acceptable level of compromise,decreased,decreased levels,unchanged or increased levels,slow,enhances the activity,acceptable level of compromise,inhibits growth,did not alter levels,small increase,specific to NF-kB,decreased,delayed,efficacious
"COCCCCOc1ccc2cc3c(=O)[nH]c(=O)nc-3oc2c1Cl [IT-878, 9-chloro-8-(4-methoxybutoxy)-2H-chromeno[2,3-d]pyrimidine-2,4(3H)-dione]",–,spared,–,–,–,spared,acceptable level of compromise,–,–,–,–,–,acceptable level of compromise,–,–,–,specific to NF-kB,–,–,–
"CC(C)C[C@H](NC(=O)[C@H](Cc1ccccc1)NC(=O)c1cnccn1)B(O)O [bortezomib, reference compound]",–,–,–,–,–,–,–,–,–,–,–,–,–,–,–,–,–,–,delayed,efficacious
